Test results taken from paper PMC10791897, “Ligand-binding properties of XaffOBP9, a Minus-C odorant-binding protein from Xyleborus affinis (Coleoptera: Curculionidae: Scolytinae)” (Frontiers in Physiology, 2024).
pIC50, pKd, pKi: −log10 of the molar value. “Also recorded” adds a separate entry of the source. Where two headings read alike, the source gives them in different places.

What was measured:
[1] = target: XaffOBP9; assay: Fluorescence binding assays of XaffOBP9 (1-NPN titration and competitive binding); design: species or system Xyleborus affinis; conditions: for pKi: calculated from IC50: Ki = [IC50]/(1 + [1-NPN]/K1-NPN); for pIC50: competitor displacing 1-NPN, 2 μM protein, 50 mM Tris-HCl pH 7.4
Description: (§1) The purified XaffOBP9 was dissolved at a final concentration of 2 μM in 50 mM Tris-HCl (pH 7.4). The binding ability of the fluorescent probe to XaffOBP9 was measured using the Infinite 200 PRO microplate plate reader (Tecan, Mannedorf, Switzerland). […] These compounds (>90% puity) were purchased from Yuanye Bio-Technology (Shanghai, China), Alading Chemical Industry (Shanghai, China) and Sigma-Aldrich (MO, United States). Binding data were collected as three independent measurements. […] The data analysis and binding curve calculations were processed in Prism 8 (Graphpad Software, San Diego, CA, United States).

[2] = test system: XaffOBP9 mutant L114A; assay: Fluorescence binding assays of mutant L114A; design: species or system Xyleborus affinis; conditions: for binding of ligand to L114A mutant protein: fluorescence binding assays, classes by Ki as in Figure 8 legend
Description: (§2) The purified XaffOBP9 was dissolved at a final concentration of 2 μM in 50 mM Tris-HCl (pH 7.4). The binding ability of the fluorescent probe to XaffOBP9 was measured using the Infinite 200 PRO microplate plate reader (Tecan, Mannedorf, Switzerland). […] Binding data were collected as three independent measurements. […] The data analysis and binding curve calculations were processed in Prism 8 (Graphpad Software, San Diego, CA, United States).
(§3) Three types of XaffOBP9 mutants (L71A, L114A, Y106A) were generated using the Fast Site-Directed Mutagenesis Kit (Tiangen, Beijing, China) according to manufacturer protocol. Sited-directed mutagenesis primers were listed in Supplementary Table S1 The PCR amplification reaction was 95°C for 2 min, followed by 94 C for 20 s, 55 C for 10 s, 68 C 2.5 min, with final incubation at 68 °C for 5 min. The three mutant proteins were then expressed and purified following the procedures used for wild-type XaffOBP9.

[3] = test system: X. affinis; conditions: cited from earlier work; for attraction of X. affinis: 2020
[4] = target: XaffOBP9 mutant Y106A; assay: Fluorescence binding assays of mutant Y106A; design: species or system Xyleborus affinis
Description: as §2, §3

[5] = target: XaffOBP9 mutant L71A; assay: Fluorescence binding assays of mutant L71A; design: species or system Xyleborus affinis; conditions: read-out: Kd with 1-NPN
Description: as §1, §3

With `CC1=CCC(=C(C)C)CC1` [Terpinolene] the pKi [1] was 4.95, the pIC50 [1] was 4.88 and the “binding of ligand to L114A mutant protein” value (shortened to “binding of ligand”) [2] was “lost its ability to bind”.

In the case of `CC1=CC(O)C2CC1C2(C)C` [(S)-cis-Verbenol], the “attraction of this rubber bark beetle” value ([3]; aggregation pheromone, ref Brand et al., 1975, Chen et al., 2019) is listed as “exhibits attraction effects”, the pKi [1] is listed as 4.86 and the pIC50 [1] is listed as 4.79. For the same molecule, the “binding of ligand” value [2] was “weakly bound”.

`C=C1C2CCC(C2)C1(C)C` (stereo not drawn) [Camphene] showed a pKi [1] of 5.10 and a pIC50 [1] of 5.03.

In the case of `CC1=CCC2CC1C2(C)C` (stereo not drawn) [α-pinene], the “effect on attraction of X. affinis” value ([3]; trapping investigations, ref Miller and Rabaglia, 2009) is listed as “enhance the attractive effect of ethanol”, the pKi [1] is listed as 5.07 and the pIC50 [1] is listed as 5.00.

With `C=CC(=C)CCC=C(C)C` [Myrcene] the pKi [1] was 5.01, the pIC50 [1] was 4.94 and the “binding of ligand” value [2] was “lost its ability to bind”.

For `CC(C)(O)c1ccccc1` [2-Phenyl-2-propanol], the “attraction of X. affinis” value ([3]; ref Xu et al.) is given as “attraction effect”, the pKi [1] is given as 4.92 and the pIC50 [1] is given as 4.85. The “binding of ligand” value [2] was “lost its ability to bind”.

For `CC1=CCC2C(C1)C2(C)C` (stereo not drawn) [Ligand 3-Carene, 3-Carene], the pKi [1] was 4.97, the pIC50 [1] was 4.91 and the “binding of ligand” value [2] was “lost its ability to bind”.

For `C=C1C2CCC3C2C(C)(C)CCCC13C` (single isomer, unassigned; (+)) [(+)-Longifolene], the “attraction of X. affinis” value ([3]; ref Xu et al.) is listed as “attraction effect”, the pKi [1] is listed as 4.78 and the pIC50 [1] is listed as 4.71. For the same molecule, the “binding of ligand” value [2] was “lost its ability to bind”.

In the case of `CCCCCCCCCCCCCCCC(=O)OC` [Methyl palmitate], the “reduction of relative fluorescence intensity of the [XaffOBP/1-NPN] mixture” value ([1]; competitive fluorescence binding curves) was “did not reduce the relative fluorescence intensity to less than half”.

Work on `c1ccc(Nc2cccc3ccccc23)cc1` [Ligand 1-NPN, N-phentl-1-naphthylamine, reference compound] yielded a pKd ([4]; read-out: Kd with 1-NPN, mutant Y106A) of 5.06, a pKd ([1]; read-out: dissociation constant K 1-NPN, titration of 2 μM protein with 1-NPN, Scatchard plot) of 5.23 and a pKd [5] of 5.22. The pKd ([2]; read-out: Kd with 1-NPN, mutant L114A) was 4.83.

For `C=C(C)[C@@H]1CC=C(C)CC1` [(S)-(-)-Limonene], the pKi [1] was 4.85, the pIC50 [1] was 4.79 and the “binding of ligand” value [2] was “lost its ability to bind”.

In the case of `CCCCCCCCCCCCCC` [Tetradecane], the “change of binding affinity of Y106A compared with WT” value ([4]; fluorescence binding assays) is listed as “noticeable decrease in its affinity; also recorded: certain decrease in binding”, the “attraction of X. affinis” value ([3]; ref Xu et al.) is listed as “attraction effect” and the pKi [1] is listed as 4.87. For the same molecule, the pIC50 [1] was 4.80 and the “binding of ligand” value [2] was “lost its ability to bind”.

For `CC1=CC[C@H]2[C@H]3[C@@H]1[C@]2(C)CC[C@H]3C(C)C` [α-copaene], the pKi [1] was 4.94, the pIC50 [1] was 4.88 and the “binding of ligand” value [2] was “weakly bound”.

In the case of `C=C1CCC2(C(C)C)CC12` (stereo not drawn) [Sabinene], the pKi [1] was 4.81, the pIC50 [1] was 4.74 and the “binding of ligand” value [2] was “lost its ability to bind”.

For `CCO` [ethanol], the “attraction of X. affinis” value ([3]; attractant lure, ref Ranger et al., 2011, Steininger et al., 2015, Lehenberger et al., Cavaletto et al., 2021) is listed as “only weakly attracted”.

For `C=C1CCC2CC1C2(C)C` (stereo not drawn) [(-)-β-pinene], the pKi [1] was 4.86 and the pIC50 [1] was 4.80.

For `Cc1cccc(C(C)C)c1` [m-Cymene], the pKi [1] was 4.83, the pIC50 [1] was 4.76 and the “binding of ligand” value [2] was “weakly bound”.
